Results from US20090076075A1, “QUINOLINE DERIVATIVES” (priority 2006, published 2009).

Key:
[1] = biological target: T1, PDGFRβ (Homo sapiens, UniProt P09619); experiment: In vitro phospho-Tyr751 PDGFRβ ELISA assay (Test (b)); type: cell-based; details: MG63 osteosarcoma cells stimulated with PDGFBB, read-out: IC50 versus phospho-Tyr751 formation in PDGFRβ
T1 construct: endogenous in cells; host or cells: MG63 osteosarcoma cells (ATCC)
Experimental: This assay uses a conventional ELISA method to determine the ability of test compounds to inhibit phosphorylation of tyrosine in PDGFRβ.
Aliquots (100 μl) of culture media were placed in the outer wells to minimise edge effects. The cells were incubated overnight at 37° C. with 7.5% CO2 to allow the cells to adhere to the wells.
Aliquots (3 μl) of each compound concentration were added to test medium (300 μl) to create a second dilution range. Aliquots (16 μl) of each resultant compound concentration were added to the cells in each well. “Maximum” control cells received a dilution of DMSO plus test medium only. “Minimum” control cells received a reference PDGFR inhibitor (16 μl). The cells were incubated for 90 minutes at 37° C. with 7.5% CO2.
The resultant cells were stimulated with PDGFBB using the following procedure. A lyophilised powder of PDGFBB, (Sigma-Aldrich; Catalogue No. P4306) was mixed with sterile water to provide a stock solution of 10 μg/ml of PDGFBB. […] Aliquots thereof (44 μl) were added to compound treated cells and to the “Maximum” control cells. The “Minimum” control cells received medium only. The cells were incubated at 37° C. with 7.5% CO2 for 5 minutes. […] The resultant tissue culture plates were shaken for 5 minutes at ambient temperature to ensure full lysis and then frozen at −20° C. until required.
Aliquots (50 μl) were added to each well and the plates were placed at 4° C. for 16 hours. The wells were washed 5 times (1 minute soak each time) with 300 μl per well of PBST. The wells were treated with 50 μl of 3% BSA in PBST at ambient temperature for 1 hour and subsequently washed twice with 300 μl per well of PBST.
The tissue culture plates with frozen cell lysate were allowed to warm to 0° C.

[2] = biological target: T2, KDR (VEGFR2) (Homo sapiens, UniProt P35968); experiment: In vitro phospho-KDR ELISA assay (Test (c)); type: cell-based; details: HUVECs stimulated with VEGF, read-out: IC50 versus phospho-tyrosine formation in KDR
T2 construct: phosphorylation of KDR expressed in human umbilical vein endothelial cells (HUVECs); host or cells: HUVEC
T2 sequence (P35968 20-1356): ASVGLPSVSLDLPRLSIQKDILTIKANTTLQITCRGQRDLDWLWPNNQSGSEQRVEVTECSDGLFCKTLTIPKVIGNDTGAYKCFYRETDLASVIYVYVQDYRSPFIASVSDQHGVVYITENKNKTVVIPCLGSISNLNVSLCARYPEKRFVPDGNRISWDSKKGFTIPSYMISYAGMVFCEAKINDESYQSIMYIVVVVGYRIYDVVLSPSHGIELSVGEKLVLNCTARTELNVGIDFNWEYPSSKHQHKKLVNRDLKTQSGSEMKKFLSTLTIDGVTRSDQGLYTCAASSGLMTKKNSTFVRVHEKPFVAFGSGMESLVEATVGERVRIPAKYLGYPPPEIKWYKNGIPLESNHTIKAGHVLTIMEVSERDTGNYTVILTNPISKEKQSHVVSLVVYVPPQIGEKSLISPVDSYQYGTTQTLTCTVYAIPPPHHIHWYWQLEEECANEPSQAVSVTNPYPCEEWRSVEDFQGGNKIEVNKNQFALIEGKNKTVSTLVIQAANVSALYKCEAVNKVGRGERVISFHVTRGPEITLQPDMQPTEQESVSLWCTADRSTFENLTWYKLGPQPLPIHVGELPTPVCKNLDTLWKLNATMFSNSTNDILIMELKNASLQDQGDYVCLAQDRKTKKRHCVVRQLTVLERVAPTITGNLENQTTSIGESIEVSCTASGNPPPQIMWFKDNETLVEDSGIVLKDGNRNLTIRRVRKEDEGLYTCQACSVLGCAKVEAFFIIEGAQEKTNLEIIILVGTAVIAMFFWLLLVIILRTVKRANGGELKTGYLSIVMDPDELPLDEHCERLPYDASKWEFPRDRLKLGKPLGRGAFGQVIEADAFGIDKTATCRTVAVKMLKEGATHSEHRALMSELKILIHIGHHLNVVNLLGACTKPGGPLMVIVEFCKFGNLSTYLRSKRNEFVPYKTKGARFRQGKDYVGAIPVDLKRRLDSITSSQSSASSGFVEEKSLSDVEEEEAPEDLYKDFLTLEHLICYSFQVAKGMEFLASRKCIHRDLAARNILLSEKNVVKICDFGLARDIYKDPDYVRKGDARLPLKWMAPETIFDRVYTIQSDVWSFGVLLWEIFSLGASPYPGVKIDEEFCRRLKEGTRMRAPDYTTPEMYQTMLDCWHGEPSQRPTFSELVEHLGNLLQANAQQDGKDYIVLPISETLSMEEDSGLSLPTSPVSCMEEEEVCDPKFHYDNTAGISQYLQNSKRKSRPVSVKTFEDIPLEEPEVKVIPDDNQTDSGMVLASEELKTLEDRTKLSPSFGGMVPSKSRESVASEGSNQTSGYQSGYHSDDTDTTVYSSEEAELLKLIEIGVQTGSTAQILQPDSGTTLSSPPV
Experimental: (c) In Vitro Phospho-KDR ELISA Assay
This assay uses a conventional ELISA method to determine the ability of test compounds to inhibit phosphorylation of tyrosine in KDR (VEGFR2).
The cells were incubated overnight at 37° C. with 7.5% CO2 to allow adherence to the well surface. […] The plates were incubated at 37° C. for 2.5 hours.
Test compounds were prepared as 10 mM stock solutions in DMSO and serially diluted with DMSO as required. […] Aliquots (50 μl) of each resultant compound concentration were added to the cells in each well. […] The cells were incubated for 90 minutes at 37° C. with 7.5% CO2.
The resultant cells were stimulated with VEGF using the following procedure. […] A dilution of this stock solution into ‘serum free medium’ provided a 1000 ng/ml VEGF solution. Aliquots thereof (50 μl) were added to all wells. The cells were incubated at 37° C. with 7.5% CO2 for 5 minutes. […] The resultant tissue culture plates were shaken for 5 minutes at ambient temperature to ensure full lysis before being frozen on dry-ice and stored at −20° C. until required.
The antibody was diluted in PBS to a concentration of 8 μg/ml, aliquots (100 μl) were added to each well and the plates were stored at ambient temperature for 16 hours. The wells were washed 3 times (1 minute soak each time) with 300 μl per well of PBST. The wells were treated with PBS containing 1% filter-sterilised BSA (1% BSA/PBS; 200 μl) at ambient temperature for 1 hour and subsequently washed 3 times with 300 μl per well of PBST.
The tissue culture plates with frozen cell lysate were allowed to warm to 0° C. Aliquots (100 μl) of the HUVEC cell lysate were added and the ELISA plates were agitated at ambient temperature for 3 hours. The wells were washed 3 times with 300 μl per well of PBST.

T1 sequence (P09619 33-1106): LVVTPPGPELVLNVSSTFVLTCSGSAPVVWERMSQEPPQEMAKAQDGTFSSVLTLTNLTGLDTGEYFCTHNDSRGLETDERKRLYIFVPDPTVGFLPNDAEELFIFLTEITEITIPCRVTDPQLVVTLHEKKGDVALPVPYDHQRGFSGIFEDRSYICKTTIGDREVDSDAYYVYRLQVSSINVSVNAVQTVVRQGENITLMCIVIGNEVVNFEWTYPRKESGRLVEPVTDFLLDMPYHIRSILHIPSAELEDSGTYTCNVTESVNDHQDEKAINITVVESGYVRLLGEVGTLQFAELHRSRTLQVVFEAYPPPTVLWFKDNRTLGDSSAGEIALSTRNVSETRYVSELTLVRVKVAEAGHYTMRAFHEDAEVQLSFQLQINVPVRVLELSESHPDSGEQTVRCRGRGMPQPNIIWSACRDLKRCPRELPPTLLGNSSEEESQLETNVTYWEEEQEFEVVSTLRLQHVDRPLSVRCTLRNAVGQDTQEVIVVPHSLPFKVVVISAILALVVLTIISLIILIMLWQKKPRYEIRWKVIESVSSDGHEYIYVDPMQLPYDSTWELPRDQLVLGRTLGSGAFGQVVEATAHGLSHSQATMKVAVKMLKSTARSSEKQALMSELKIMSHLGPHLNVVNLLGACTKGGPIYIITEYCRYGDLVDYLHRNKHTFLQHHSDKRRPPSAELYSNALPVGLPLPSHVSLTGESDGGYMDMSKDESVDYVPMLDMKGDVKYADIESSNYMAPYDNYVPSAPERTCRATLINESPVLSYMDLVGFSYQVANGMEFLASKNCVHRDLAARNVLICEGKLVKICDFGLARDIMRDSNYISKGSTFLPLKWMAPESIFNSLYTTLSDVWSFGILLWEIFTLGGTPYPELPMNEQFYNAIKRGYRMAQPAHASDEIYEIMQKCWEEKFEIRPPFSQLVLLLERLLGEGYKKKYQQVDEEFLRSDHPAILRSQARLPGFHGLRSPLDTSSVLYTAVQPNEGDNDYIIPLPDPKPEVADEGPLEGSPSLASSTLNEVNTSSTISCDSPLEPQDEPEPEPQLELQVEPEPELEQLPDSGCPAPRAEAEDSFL

SMILES: CCc1cc(NC(=O)Cc2ccc(Oc3ccnc4cc(OC)c(C#N)cc34)cn2)n[nH]1 [Example 3, N-(5-ethylpyrazol-3-yl)-2-[5-(6-cyano-7-methoxyquinolin-4-yloxy)pyridin-2-yl]acetamide]
- IC50 [1]: ~30 nM

SMILES: COc1ccc2c(Oc3cnc(CC(=O)Nc4noc(C)c4C)c(OC)c3)ccnc2c1 [N-(4,5-dimethylisoxazol-3-yl)-2-[3-methoxy-5-(7-methoxyquinolin-4-yloxy)pyridin-2-yl]acetamide]
- IC50 [1]: ~5 nM
- IC50 [2]: > 2000 nM

SMILES: COc1cc2nccc(Oc3cnc(CC(=O)Nc4n[nH]c(C)c4C)c(OC)c3)c2cc1OC [N-(4,5-dimethylpyrazol-3-yl)-2-[5-(6,7-dimethoxyquinolin-4-yloxy)-3-methoxypyridin-2-yl]acetamide]
- IC50 [1]: ~5 nM
- IC50 [2]: > 2000 nM

SMILES: CCc1cc(NC(=O)Cc2ncc(Oc3ccnc4ccc(F)cc34)cc2OC)no1 [N-(5-ethylisoxazol-3-yl)-2-[5-(6-fluoroquinolin-4-yloxy)-3-methoxypyridin-2-yl]acetamide]
- IC50 [1]: ~5 nM
- IC50 [2]: > 2000 nM
